Like-named read-outs stand apart in the source and are kept apart here.
How the values were obtained:
A2 adenosine receptors [1] = target: T1, A2 adenosine receptors (Rattus norvegicus, UniProt P30543); test: Affinity for A2 adenosine receptors, [3H]-NECA binding to Wister rat striatal membranes; conditions: for Ki: Wister rat striatal membranes, 5 nM [3H]-NECA, Cheng and Prusoff, read-out: Affinity for Adenosine Receptors A2, affinity constant (Ki)
T1 construct: evaluated using Wister rat striatal membranes; from tissue; host or cells: Wistar rat striatal membranes
T1 sequence (P30543 whole entry): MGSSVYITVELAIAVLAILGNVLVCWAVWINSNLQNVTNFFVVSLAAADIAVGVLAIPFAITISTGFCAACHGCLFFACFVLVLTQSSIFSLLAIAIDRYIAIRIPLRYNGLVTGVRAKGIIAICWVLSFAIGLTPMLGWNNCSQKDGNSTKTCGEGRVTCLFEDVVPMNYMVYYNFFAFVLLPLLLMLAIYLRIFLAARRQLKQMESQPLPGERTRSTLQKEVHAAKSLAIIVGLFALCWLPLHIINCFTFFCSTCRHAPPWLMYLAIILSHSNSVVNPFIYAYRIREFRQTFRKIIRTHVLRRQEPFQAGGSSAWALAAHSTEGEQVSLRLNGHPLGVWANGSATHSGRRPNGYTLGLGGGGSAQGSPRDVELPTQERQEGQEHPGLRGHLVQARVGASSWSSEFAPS
Experimental: The affinity of the test compound for A2 receptors was also evaluated using Wister rat striatal membranes.
The selectivity for A1 and A2 receptors was obtained by calculating the ratio of the Ki value in terms of A2 receptors to that in terms of A1 receptors (A1 /A2).

[2] = tested on: spontaneously hypertensive rats (SHRs); test: Effect on blood pressure and heart rate in SHR; type: in vivo, rat; conditions: for ED30: Rattus norvegicus, iv, 5 min, read-out: Blood Pressure ED30; for Heart Rate ED10: amount giving a 10 percent decrease in initial heart rate; for ED10/ED30: ratio of heart rate ED10 to blood pressure ED30 in SHR
Experimental: Male spontaneously hypertensive rats (SHRs) were anesthetized with urethane and α-chloralose. The blood pressure of the rats was measured with a pressure transducer through a polyethylene cannula inserted into the left carotid artery. The heart rate was monitored with a cardiotachometer triggered by the arterial pressure pulse. […] The blood pressure and the heart rate of the rats were measured 5 minutes after the respective administrations, and the maximum values thereof were determined.
Effects of the test compounds on the blood pressure and the heart rate were compared in terms of the ED30 and ED10 values.

A2 adenosine receptors [3] = conditions: background statement; cited from earlier work
A1 adenosine receptors [4] = conditions: background statement; cited from earlier work
A1 adenosine receptors [5] = target: T2, A1 adenosine receptors (Rattus norvegicus, UniProt P25099); test: Affinity for A1 adenosine receptors, [3H]-CHA binding to Wister rat brain membranes; conditions: 2.5 nM [3H]-CHA, Cheng and Prusoff, read-out: Affinity for Adenosine Receptors A1, affinity constant (Ki)
T2 construct: evaluated using Wister rat brain membranes; from tissue; host or cells: Wistar rat brain membranes
T2 sequence (P25099 1-326): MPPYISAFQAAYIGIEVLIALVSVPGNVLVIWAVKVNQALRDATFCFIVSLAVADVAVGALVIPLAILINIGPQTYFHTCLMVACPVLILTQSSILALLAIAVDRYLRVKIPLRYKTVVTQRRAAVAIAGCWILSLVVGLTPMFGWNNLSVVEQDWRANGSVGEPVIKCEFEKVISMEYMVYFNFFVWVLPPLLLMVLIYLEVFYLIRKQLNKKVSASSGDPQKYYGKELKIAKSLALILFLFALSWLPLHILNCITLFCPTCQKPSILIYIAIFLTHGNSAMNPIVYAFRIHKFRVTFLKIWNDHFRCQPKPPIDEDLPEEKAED
Experimental: The affinity of the compounds of the present invention for adenosine receptors was evaluated in substantially the same manner as is described in R. F. Bruns et al., Mol. Pharmacol., 29, 331-346 (1986); R. F. Bruns et al., Proc. Natl. Acad. Sci., U.S.A., 77, 5547 (1980); and Japanese Laid-Open Patent Publications Nos. 201196/1988 and 111996/1987. […] The above-obtained data were applied to the equation of Cheng and Prusoff, presented in Biochem. Pharmacol., 22, 3099 (1973), thereby finally obtaining the affinity constants (Ki). (See "Neurotransmitter and Receptor Binding". […] Kabushiki Kaisha (Sep. 15, 1987).)

[6] = anesthetized male SHR, cumulative administration through femoral veins

SMILES	Ki (A2 adenosine receptors [1]) [nM]	A1/A2 (selectivity, ratio of Ki values) (A2 adenosine receptors [1]; ratio of Ki for A1 receptors to Ki for A2 receptors)	ED30 ([2]; amount giving a 30 percent decrease in initial blood pressure, anesthetized male SHR, cumulative administration through femoral veins) [µg/kg]	Heart Rate ED10 [2, 6] [µg/kg]	ED10/ED30 [2]	affinity for A2 receptors (A2 adenosine receptors [3])	affinity for A1 receptors (A1 adenosine receptors [4])	Ki (A1 adenosine receptors [5]) [nM]	ED30 [2] [µg/kg]
CCCCCCC#Cc1nc(N)c2ncn([C@@H]3O[C@H](CO)[C@@H](O)[C@H]3O)c2n1 [2-Octynyladenosine, reference compound]	11	12.1	0.25	64.50	258	–	–	–	–
CCNC(=O)[C@H]1O[C@@H](n2cnc3c(N)ncnc32)[C@H](O)[C@@H]1O [5'-N-ethylcarboxamideadenosine (NECA), 5'-N-ethylcarboxamideadenosine]	–	–	–	–	–	high affinity for A2 receptors	high affinity for A1 receptors	–	–
Nc1nc(C#CCC2CCCC2)nc2c1ncn2[C@@H]1O[C@H](CO)[C@@H](O)[C@H]1O [Compound No. 18, 2-(3-cyclopentyl-1-propynyl)adenosine]	2.3	–	–	> 100	> 1851	–	–	162	0.054
Nc1nc(C#CCC2CCCCC2)nc2c1ncn2[C@@H]1O[C@H](CO)[C@@H](O)[C@H]1O [Compound No. 26, 2-(3-cyclohexyl-1-propynyl)adenosine]	–	–	–	> 100	> 793	–	–	208	0.126
Nc1nc(C#CC2(O)CCCCCCC2)nc2c1ncn2[C@@H]1O[C@H](CO)[C@@H](O)[C@H]1O [Compound No. 45, 2-[(1-hydroxycyclooctane-1-yl)ethynyl]adenosine]	–	–	–	14.78	1231	–	–	56	0.012
Nc1nc(C#CC2(O)CCCCC2)nc2c1ncn2[C@@H]1O[C@H](CO)[C@@H](O)[C@H]1O [Compound No. 29, 2-[(1-hydroxycyclohexane-1-yl)ethynyl]adenosine]	–	–	–	3.29	235	–	–	21	0.014
